In PMC7316994, “In Vitro Pharmacological Profile of a New Small Molecule Bradykinin B2 Receptor Antagonist” (Frontiers in Pharmacology, 2020):
Where two headings read alike, the source gives them in different places.

Tests used:
Purinergic receptor P2X = assay: radioligand binding (Table S2); conditions: [3H] α,β-MeATP, Rat urinary bladder
Kainate = assay: radioligand binding (Table S2); conditions: [3H] Kainic acid, Rat cerebral cortex
[1] = tested on: Calcium Ca2+ channel (L-dihydropyridine site); assay: radioligand binding (Table S2); conditions: [3H] Nitrendepine, Rat cerebral cortex
[2] = tested on: Potassium channel voltage gated KV channel; type: binding; conditions: [125I] α-dendrotoxin, Rat cerebral cortex
Adenosine A2B = Adenosine A2B (Homo sapiens, UniProt P29275); assay: radioligand binding (Table S2); conditions: read-out: % Inhibition @ 10 µM
Chain of Adenosine A2B (P29275 whole entry): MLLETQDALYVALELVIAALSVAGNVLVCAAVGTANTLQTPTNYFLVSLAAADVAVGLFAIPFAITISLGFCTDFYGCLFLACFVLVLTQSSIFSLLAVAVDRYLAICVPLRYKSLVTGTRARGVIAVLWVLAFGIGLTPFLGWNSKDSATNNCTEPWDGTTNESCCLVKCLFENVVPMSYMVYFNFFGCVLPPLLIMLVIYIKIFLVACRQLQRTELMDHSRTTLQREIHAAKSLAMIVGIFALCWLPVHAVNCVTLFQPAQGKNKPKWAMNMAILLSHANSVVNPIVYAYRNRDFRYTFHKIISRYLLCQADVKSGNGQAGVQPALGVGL

Serotonin 5-HT2C = biological target: T1, Serotonin 5-HT2C (Homo sapiens, UniProt P28335); assay: radioligand binding (Table S2); conditions: [3H] Mesulergine, Human recombinant HEK-293 cells
T1 construct: host or cells: HEK-293 cells
T1 sequence (P28335 33-458): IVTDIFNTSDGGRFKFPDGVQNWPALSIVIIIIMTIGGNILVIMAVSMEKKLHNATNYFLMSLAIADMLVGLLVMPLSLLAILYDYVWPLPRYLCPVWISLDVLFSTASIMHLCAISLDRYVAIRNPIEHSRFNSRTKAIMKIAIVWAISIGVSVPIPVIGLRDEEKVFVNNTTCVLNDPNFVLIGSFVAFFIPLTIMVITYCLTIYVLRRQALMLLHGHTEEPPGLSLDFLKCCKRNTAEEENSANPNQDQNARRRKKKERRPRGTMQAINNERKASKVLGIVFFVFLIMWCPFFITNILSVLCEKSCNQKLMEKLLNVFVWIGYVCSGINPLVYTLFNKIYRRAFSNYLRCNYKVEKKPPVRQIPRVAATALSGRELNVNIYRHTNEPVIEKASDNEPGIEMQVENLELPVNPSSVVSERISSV

[3] = biological target: T2, Corticotropin-releasing factor CRF1 (Homo sapiens, UniProt P34998); assay: functional assay, cAMP HTRF, CHO cells (Table S2); type: cell-based
T2 construct: expressed in transfected cells; host or cells: CHO cells
T2 sequence (P34998 24-415): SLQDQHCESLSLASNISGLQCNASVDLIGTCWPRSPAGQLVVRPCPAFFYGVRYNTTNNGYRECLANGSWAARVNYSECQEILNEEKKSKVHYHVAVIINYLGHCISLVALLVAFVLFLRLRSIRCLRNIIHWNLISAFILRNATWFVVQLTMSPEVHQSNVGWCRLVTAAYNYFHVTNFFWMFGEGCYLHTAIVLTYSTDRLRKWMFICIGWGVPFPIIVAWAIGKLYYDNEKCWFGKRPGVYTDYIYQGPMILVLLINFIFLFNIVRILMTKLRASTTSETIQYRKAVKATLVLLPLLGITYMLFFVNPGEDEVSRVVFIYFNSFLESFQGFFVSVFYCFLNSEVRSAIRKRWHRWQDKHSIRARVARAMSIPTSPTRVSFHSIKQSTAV

Somatostatin sst1 = Somatostatin sst1 (Homo sapiens, UniProt P30872); assay: radioligand binding (Table S2); conditions: [125I] Tyr11-Somatostatin 14, Human recombinant CHO-S cells
Chain of Somatostatin sst1 (P30872 whole entry): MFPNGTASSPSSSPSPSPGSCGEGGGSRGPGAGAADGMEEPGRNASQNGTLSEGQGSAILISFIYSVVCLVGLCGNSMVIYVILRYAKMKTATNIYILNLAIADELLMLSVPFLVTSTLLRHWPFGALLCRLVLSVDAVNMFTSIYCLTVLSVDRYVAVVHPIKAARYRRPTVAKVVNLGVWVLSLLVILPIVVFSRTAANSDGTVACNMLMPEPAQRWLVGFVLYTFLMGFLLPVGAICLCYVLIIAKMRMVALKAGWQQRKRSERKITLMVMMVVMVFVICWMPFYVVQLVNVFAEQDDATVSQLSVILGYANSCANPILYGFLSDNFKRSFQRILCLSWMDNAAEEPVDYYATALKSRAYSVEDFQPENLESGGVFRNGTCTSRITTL

Apelin APJ = Apelin APJ (Homo sapiens, UniProt P35414); assay: radioligand binding (Table S2); conditions: [125I] [Glp65, Nle75, Tyr77]-apelin-13, Human recombinant CHO cells
Chain of Apelin APJ (P35414 whole entry): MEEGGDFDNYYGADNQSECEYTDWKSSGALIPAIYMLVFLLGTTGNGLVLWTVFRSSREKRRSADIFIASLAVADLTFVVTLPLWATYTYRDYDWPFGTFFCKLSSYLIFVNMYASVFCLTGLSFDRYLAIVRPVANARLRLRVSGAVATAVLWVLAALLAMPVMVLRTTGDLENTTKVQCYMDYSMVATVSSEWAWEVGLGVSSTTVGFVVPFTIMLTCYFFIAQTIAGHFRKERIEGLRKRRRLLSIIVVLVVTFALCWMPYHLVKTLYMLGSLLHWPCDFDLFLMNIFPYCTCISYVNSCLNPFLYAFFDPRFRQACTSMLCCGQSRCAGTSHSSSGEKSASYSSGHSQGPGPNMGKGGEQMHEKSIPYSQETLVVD

[4] = biological target: Gamma-aminobutyric acid GABAB1B (Homo sapiens, UniProt Q9UBS5); assay: radioligand binding (Table S2); conditions: read-out: % Inhibition @ 10 µM
Chain of Gamma-aminobutyric acid GABAB1B (Q9UBS5 1-844 isoform Q9UBS5-2): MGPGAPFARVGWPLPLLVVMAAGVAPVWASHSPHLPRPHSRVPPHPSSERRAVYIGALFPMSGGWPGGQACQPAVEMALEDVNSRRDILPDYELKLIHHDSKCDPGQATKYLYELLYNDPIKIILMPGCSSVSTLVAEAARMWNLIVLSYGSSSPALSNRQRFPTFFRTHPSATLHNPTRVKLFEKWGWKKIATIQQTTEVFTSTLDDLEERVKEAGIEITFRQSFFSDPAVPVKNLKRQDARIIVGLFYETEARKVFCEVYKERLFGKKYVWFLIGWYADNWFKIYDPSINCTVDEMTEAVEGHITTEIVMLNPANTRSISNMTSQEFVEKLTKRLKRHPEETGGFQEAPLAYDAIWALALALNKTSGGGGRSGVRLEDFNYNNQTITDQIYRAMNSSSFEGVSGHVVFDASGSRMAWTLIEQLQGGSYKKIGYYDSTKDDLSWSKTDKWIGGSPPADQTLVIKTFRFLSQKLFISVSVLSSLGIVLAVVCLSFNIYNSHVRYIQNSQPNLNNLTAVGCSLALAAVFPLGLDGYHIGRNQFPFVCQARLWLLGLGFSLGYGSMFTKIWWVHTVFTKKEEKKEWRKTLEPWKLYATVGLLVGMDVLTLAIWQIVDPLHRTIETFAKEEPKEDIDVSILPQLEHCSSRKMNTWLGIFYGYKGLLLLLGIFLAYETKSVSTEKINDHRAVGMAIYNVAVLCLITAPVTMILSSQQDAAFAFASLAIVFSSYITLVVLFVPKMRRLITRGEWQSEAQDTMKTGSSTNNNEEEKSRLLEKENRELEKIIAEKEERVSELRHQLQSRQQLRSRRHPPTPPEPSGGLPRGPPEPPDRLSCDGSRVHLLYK

Bombesin BB2 = biological target: T3, Bombesin BB2 (Homo sapiens, UniProt P30550); assay: radioligand binding (Table S2); conditions: [125I] [Tyr4]-bombesin, Human recombinant HEK-293 cells
T3 construct: host or cells: HEK-293 cells
T3 sequence (P30550 whole entry): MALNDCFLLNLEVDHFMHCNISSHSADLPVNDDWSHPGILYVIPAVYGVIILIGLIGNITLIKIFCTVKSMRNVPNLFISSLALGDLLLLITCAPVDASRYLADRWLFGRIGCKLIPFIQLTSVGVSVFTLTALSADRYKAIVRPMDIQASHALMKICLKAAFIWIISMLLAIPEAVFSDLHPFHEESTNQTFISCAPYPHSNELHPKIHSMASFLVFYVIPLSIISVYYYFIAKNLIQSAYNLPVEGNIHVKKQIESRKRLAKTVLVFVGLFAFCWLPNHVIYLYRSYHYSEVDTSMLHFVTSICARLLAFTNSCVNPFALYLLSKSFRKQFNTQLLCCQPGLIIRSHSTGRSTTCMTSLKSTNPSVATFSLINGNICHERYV

[5] = tested on: panel of G protein-coupled receptors (GPCRs), ion channels, enzymes and transporters
PDE5 (non-selective) = PDE5 (non-selective) (Homo sapiens, UniProt O76074); assay: enzyme assay (Table S2); type: biochemical; conditions: Human platelets, [3H]cGMP + cGMP (1 µM)
B2 receptor = biological target: T4, B2 receptor (Homo sapiens, UniProt P30411); assay: [^3H]BK competition binding assay, CHO cell membranes; set-up: host or cells: CHO cells; conditions: competition with 0.3 nM [^3H]BK
T4 sequence (P30411 1-391): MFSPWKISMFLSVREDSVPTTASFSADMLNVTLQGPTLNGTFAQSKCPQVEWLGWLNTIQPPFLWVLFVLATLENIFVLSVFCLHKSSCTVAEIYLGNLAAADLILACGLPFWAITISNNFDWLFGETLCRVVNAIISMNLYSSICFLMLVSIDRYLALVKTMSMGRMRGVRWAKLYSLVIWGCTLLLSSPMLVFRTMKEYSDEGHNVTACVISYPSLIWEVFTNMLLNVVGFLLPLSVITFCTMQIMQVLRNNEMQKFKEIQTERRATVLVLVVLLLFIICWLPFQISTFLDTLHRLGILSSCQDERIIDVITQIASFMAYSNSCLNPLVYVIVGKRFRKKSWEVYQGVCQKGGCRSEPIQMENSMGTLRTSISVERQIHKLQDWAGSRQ

Potassium channel KATP = assay: radioligand binding (Table S2); conditions: [3H] Glibenclamide, Rat cerebral cortex
Adenosine A3 = biological target: T5, Adenosine A3 (Homo sapiens, UniProt P0DMS8); assay: radioligand binding (Table S2); conditions: [125I] AB-MECA, Human recombinant HEK-293 cells
T5 sequence (P0DMS8 1-318): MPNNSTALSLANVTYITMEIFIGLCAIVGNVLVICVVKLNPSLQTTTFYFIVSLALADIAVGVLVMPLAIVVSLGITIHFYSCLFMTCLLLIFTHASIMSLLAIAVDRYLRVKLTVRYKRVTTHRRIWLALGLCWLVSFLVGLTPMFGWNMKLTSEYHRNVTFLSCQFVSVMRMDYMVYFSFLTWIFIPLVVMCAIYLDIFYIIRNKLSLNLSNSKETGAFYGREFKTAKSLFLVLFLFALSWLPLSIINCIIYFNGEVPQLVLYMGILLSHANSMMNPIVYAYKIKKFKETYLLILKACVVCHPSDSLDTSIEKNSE

[6] = tested on: Benzodiazepine BZD (central); assay: radioligand binding (Table S2); conditions: [3H] Flunitrazepam, Rat cerebral cortex
Muscarinic M5 = Muscarinic M5 (Homo sapiens, UniProt P08912); assay: radioligand binding (Table S2); conditions: read-out: % Inhibition @ 10 µM
Chain of Muscarinic M5 (P08912 whole entry): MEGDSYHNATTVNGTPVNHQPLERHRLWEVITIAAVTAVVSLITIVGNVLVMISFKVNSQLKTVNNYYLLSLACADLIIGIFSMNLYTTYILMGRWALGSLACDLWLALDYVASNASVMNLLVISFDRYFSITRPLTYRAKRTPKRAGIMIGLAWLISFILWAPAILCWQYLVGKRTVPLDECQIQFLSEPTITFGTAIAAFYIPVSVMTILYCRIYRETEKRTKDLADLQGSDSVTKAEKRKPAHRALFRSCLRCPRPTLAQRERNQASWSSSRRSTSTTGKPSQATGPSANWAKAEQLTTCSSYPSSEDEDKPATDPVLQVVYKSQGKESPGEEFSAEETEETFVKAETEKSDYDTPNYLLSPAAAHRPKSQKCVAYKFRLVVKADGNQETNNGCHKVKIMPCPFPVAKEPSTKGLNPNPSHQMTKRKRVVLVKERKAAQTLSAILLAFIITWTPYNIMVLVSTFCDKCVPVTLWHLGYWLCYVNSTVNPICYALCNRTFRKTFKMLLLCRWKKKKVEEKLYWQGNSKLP

[7] = biological target: T6, Cysteinyl leukotriene receptor CysLT2 (Homo sapiens, UniProt Q9NS75); assay: radioligand binding (Table S2); conditions: [3H] LTD4, Human recombinant HEK-293 cells
T6 construct: host or cells: HEK-293 cells
T6 sequence (Q9NS75 whole entry): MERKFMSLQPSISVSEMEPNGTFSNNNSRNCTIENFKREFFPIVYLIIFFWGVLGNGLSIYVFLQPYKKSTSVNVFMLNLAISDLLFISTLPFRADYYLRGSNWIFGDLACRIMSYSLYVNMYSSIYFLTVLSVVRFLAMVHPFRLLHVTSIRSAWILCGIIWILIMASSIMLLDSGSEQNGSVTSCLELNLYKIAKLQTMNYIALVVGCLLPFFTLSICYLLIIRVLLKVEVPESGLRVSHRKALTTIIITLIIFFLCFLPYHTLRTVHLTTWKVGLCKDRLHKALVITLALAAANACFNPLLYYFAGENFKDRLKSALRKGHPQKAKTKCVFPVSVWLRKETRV

How did the “% Inhibition @ 10 µM” value (Purinergic receptor P2X) turn out when `Cc1cc(-c2ncnn2C)c2cccc(OCc3c(Cl)cc(F)cc3[C@H](C)NC(=O)COC(F)F)c2n1` [Compound 3, (S)-N-(1-(3-chloro-5-fluoro-2-((2-methyl-4-(1-methyl-1H-1,2,4-triazol-5-yl)quinolin-8-yloxy)methyl)phenyl)ethyl)-2-(difluoromethoxy)acetamide] was run?
Its value is 6.3%.

What about the “% Inhibition @ 10 µM” value (Kainate) of the same molecule?
The value was -4.4%.

And the “% Inhibition @ 10 µM” value [1]?
Its value is 7.3%.

What about the “% Inhibition @ 10 µM” value [2] of the same molecule?
Its value is 2.3%.

What about the inhibition at 10 µM (Adenosine A2B) of the same molecule?
Its inhibition at 10 µM is 3.6%.

And the inhibition at 10 µM (Serotonin 5-HT2C)?
Its inhibition at 10 µM is 5%.

What about the “% of reference agonist response @ 10 µM (agonist effect)” value ([3]; 10 µM, reference ovine CRF (1 µM)) of the same molecule?
Its value is -2.7%.

What about the inhibition at 10 µM ([3]; CHO, read-out: % inhibition of reference agonist response @ 10 µM (antagonist effect), 10 µM, Ovine CRF (10 nM)) of the same molecule?
Its inhibition at 10 µM is 55.7%.

What about the IC50 ([3]; Ovine CRF (10 nM), read-out: IC50 (µM), functional antagonism) of the same molecule?
Its IC50 is 10 µM.

And the Kb ([3]; Ovine CRF (10 nM), read-out: Kb (µM), functional antagonism)?
The Kb was 3.6 µM.

And the inhibition at 10 µM (Somatostatin sst1)?
Its inhibition at 10 µM is -2%.

What about the inhibition at 10 µM (Apelin APJ) of the same molecule?
The inhibition at 10 µM was -0.4%.

And the inhibition at 10 µM [4]?
The inhibition at 10 µM was 9%.

What about the inhibition at 10 µM (Bombesin BB2) of the same molecule?
Its inhibition at 10 µM is -1.4%.

What about the “inhibition of binding or functional activity at most targets” value ([5]; 10 μM, most targets incl. bradykinin B1 and angiotensin AT1, except V1a, CRF1, EP1, TP, NK1) of the same molecule?
Its value is less than 50%.

And the “agonism at V1a, CRF1, TP, NK1, NK3” value ([5]; full concentration-response curves, agonist mode)?
Its value is “no agonism”.

What about the inhibition at 10 µM (PDE5 (non-selective)) of the same molecule?
Its inhibition at 10 µM is 15.5%.

And the IC50 (B2 receptor; arithmetic mean, read-out: IC50 (nM) Mean)?
The IC50 was 0.97 nM.

What about the Ki (B2 receptor; arithmetic mean, read-out: Ki (nM) Mean) of the same molecule?
Its Ki is 0.5 nM.

What about the IC50 (B2 receptor; geometric mean, read-out: IC50 (nM) Geometric mean) of the same molecule?
The IC50 was 0.97 nM.

What about the Ki (B2 receptor; geometric mean, read-out: Ki (nM) Geometric mean) of the same molecule?
The Ki was 0.5 nM.

What about the “% Inhibition @ 10 µM” value (Potassium channel KATP) of the same molecule?
Its value is 2.3%.

What about the inhibition at 10 µM (Adenosine A3) of the same molecule?
The inhibition at 10 µM was 39.8%.

What about the “% Inhibition @ 10 µM” value [6] of the same molecule?
Its value is -25.8%.

What about the inhibition at 10 µM (Muscarinic M5) of the same molecule?
The inhibition at 10 µM was 5.1%.

What about the inhibition at 10 µM [7] of the same molecule?
The inhibition at 10 µM was -6%.
